In patent publication US11459545B2, “Methods to enhance delivery and engraftment of stem cells including the identification of specific prostaglandin E2 receptors” (INDIANA UNIVERSITY RESEARCH AND TECHNOLOGY CORPORATION, priority 2009, dated 2022):

Test system: CD34+ cells from cord blood
Experiment: CXCR4 expression on CD34+ cells after ex vivo pulse exposure (flow cytometry)
Format: cell-based, human
Conditions: for up regulation of CXCR4 on the surface of CD34+ cells: cord blood samples, ex vivo pulse exposure, cytometry histograms compared to isotype control (FIG. 1)
Procedure: Un-manipulated hematopoietic grafts or purified hematopoietic stem cell populations (e.g., SKL cells in mice or CD34^+ cells in humans) are incubated with an EP4 specific agonist: 5-[(1E,3R)-4,4-difluoro-3-hydroxy-4-phenyl-1-buten-1-yl]-1-[6-(2H-tetrazol-5R-yl)hexyl]-2-pyrrolidinone (i.e. L-902,688), on ice or at room temperature at concentrations of 0.001-10 microMolar agonist per 1-10 million cells in 1 ml of culture medium, e.g. IMDM, for 15 minutes-6 hrs. After incubation, the cells are washed 3 times in sterile media or saline and administered to recipients, intravenously. L-902,688 was a generous gift from Merck Frosst (Kirkland, Canada) (Young, et al., 2004).
Referring now to FIG. 1. This graph illustrates that treatment of cells with EP4 agonist ex vivo specifically up regulates CXCR4 expression on CD34^+ cells. […] The bar graph indicator data measured from such experiments graphed as a function of different compounds used dmPGE2, Butaprostone, sulprostone and EP4.
Referring now to FIG. 2. This graph illustrates that signaling via the EP4 receptor is responsible for up regulation of CXCR4 expression. […] Treatment with EP4 agonist ex vivo up regulates CXCR4 expression on CD34^+ cells. […] In the bar chart this effort is normalized to 100%. […] The fact that up regulation of CXCR4 by an EP4 selective agonist is blocked by a selective EP4 antagonist, but not by EP1, 2, 3, antagonist, provides additional evidence that up regulation is mediated through the EP4 receptor.

Row | SMILES | up regulation of CXCR4 on the surface of CD34+ cells | up regulation of CXCR4 expression on CD34+ cells (ex vivo treatment, combined data for 8 cord blood samples (FIG. 2))
1 | CCCCC(C)(C)[C@H](O)/C=C/[C@H]1[C@H](O)CC(=O)[C@@H]1C/C=C\CCCC(=O)O [dmPGE2, 16,16 dimethylprostaglandin E2] | significant up regulation | 
2 | O=C1CC[C@H](/C=C/[C@@H](O)C(F)(F)c2ccccc2)N1CCCCCCc1nn[nH]n1 [EP4 agonist, 5-[(1E,3R)-4,4-difluoro-3-hydroxy-4-phenyl-1-buten-1-yl]-1-[6-(2H-tetrazol-5R-yl)hexyl]-2-pyrrolidinone] | significant up regulation | about 3 fold
